The results in this text go back to patent publication US12180193B2, “Accelerating fibrosarcoma protein degrading compounds and associated methods of use” (Arvinas Operations, Inc., priority 2020, dated 2024).

As usually defined, the DC50 is the concentration giving 50% degradation. The term Dmax denotes the largest share of the target that was removed. High values mean a fuller loss of target, low ones a partial loss of target.

A value given as a limit tells only on which side of the number the result lay.

Assay [1] addresses T1, BRAF V600E (Homo sapiens, UniProt P15056, V600E).
T1 construct: expressed in transfected cells
The assay is described as follows: Cellular assay of target protein degradation, T-Rex 293 cells stably transfected with HA-BRAF_V600E (HA immunofluorescence, high content imaging). In kind it is cell-based. To be noted: T-Rex 293 HA-BRAF V600E; for DC50: half maximal degradation, read-out: BRaf V600E DC50; for Dmax: maximum degradation observed. In short, it runs like this: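 Degradation of the HA-tagged construct is measured after 24 h treatment at 37 °C across 1 μM to 0.1 nM in 0.1% DMSO, in doxycycline-induced (1 ng/mL) cells. DC50 and Dmax come from HA fluorescence imaging.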

Assay [2] addresses T2, BRAF G466V (Homo sapiens, UniProt P15056, G466V).
T2 construct: expressed in transfected cells
Description: Cellular assay of target protein degradation, T-Rex 293 cells stably transfected with HA-BRAF G466V (HA immunofluorescence, high content imaging). Type of assay: cell-based. To be noted: T-Rex 293 HA-BRAF G466V; for DC50: half maximal degradation, read-out: BRaf G466V DC50; for Dmax: maximum degradation observed. The essentials:
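Dose range spans 30 nM to 3 pM (0.1% DMSO) over 24 hours at 37° C, in cells induced with 0.75 ng/mL doxycycline. Fixed cells are probed with anti-HA antibody overnight at 4° C, then imaged; half-maximal degradation and maximum degradation are derived.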

T2 sequence (P15056 whole entry G466V): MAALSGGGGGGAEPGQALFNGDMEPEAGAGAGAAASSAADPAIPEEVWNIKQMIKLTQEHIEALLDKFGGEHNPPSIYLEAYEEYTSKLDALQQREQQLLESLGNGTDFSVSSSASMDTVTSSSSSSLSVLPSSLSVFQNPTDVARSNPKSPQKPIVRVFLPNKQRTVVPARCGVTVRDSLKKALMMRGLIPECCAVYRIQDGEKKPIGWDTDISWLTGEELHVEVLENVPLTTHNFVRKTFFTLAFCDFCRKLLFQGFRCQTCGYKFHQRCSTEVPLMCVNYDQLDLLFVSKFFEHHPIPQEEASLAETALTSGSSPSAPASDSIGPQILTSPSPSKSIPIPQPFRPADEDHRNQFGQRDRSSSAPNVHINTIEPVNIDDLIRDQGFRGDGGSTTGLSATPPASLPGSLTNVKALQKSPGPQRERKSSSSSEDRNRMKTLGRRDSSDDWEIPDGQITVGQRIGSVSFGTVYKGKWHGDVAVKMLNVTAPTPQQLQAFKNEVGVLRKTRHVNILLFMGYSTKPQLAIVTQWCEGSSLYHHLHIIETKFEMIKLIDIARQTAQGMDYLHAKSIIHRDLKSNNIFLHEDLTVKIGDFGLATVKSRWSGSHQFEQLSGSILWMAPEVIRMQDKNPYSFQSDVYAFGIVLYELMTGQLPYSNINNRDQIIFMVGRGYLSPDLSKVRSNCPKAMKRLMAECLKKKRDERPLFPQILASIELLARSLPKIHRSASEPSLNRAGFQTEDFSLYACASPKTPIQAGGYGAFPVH
T1 sequence (P15056 whole entry V600E): as the sequence (P15056 whole entry G466V) above, with V466G, V600E counted along it

With `O=C1CC[C@H](N2Cc3cc(C[C@H](O)CN4CCC(c5ccc(-c6cnc7[nH]cc(C(=O)c8c(F)ccc(NS(=O)(=O)N9CC[C@@H](F)C9)c8F)c7c6)cc5)CC4)ccc3C2=O)C(=O)N1` [Compound 109, (3R)-N-{3-[5-(4-{1-[(2S)-3-{2-[(3S)-2,6-dioxopiperidin-3-yl]-1-oxo-2,3-dihydro-1H-isoindol-5-yl}-2-hydroxypropyl]piperidin-4-yl}phenyl)-1H-pyrrolo[2,3-b]pyridine-3-carbonyl]-2,4-difluorophenyl}-3-fluoropyrrolidine-1-sulfonamide], in assay [1], the 50% degradation concentration (DC50) fell in the range of 5 to 50 nM and the maximal degradation (Dmax) fell in the range of 35 to 70%. In addition, in assay [2], the DC50 was 1 to 10 nM and the Dmax is greater than 70%.

`O=C1CCC(N2Cc3cc(C4CCN(C[C@H](O)Cc5ccc(-c6cnc7[nH]cc(C(=O)c8c(F)ccc(NS(=O)(=O)N9CC[C@@H](F)C9)c8F)c7c6)cc5)CC4)ccc3C2=O)C(=O)N1` (stereo partly drawn) [Compound 110, (3R)-N-[3-(5-{4-[(2R)-3-{4-[2-(2,6-dioxopiperidin-3-yl)-1-oxo-2,3-dihydro-1H-isoindol-5-yl]piperidin-1-yl}-2-hydroxypropyl]phenyl}-1H-pyrrolo[2,3-b]pyridine-3-carbonyl)-2,4-difluorophenyl]-3-fluoropyrrolidine-1-sulfonamide]: in assay [1], the half-maximal degradation concentration (DC50) fell in the range of 50 to 500 nM and the Dmax is 35 to 70%. Further, in assay [2], the DC50 lay in the range of 1 to 10 nM and the Dmax is greater than 70%.

Turning to `O=C1CCC(N2Cc3cc(N4CCC(CN5CC6(CCN(c7ccc(-c8cnc9[nH]cc(C(=O)c%10c(F)ccc(NS(=O)(=O)N%11CC[C@@H](F)C%11)c%10F)c9c8)cc7F)C6)C5)CC4)ccc3C2=O)C(=O)N1` (stereo partly drawn) [Compound 111, (3R)-N-[3-(5-{4-[2-({1-[2-(2,6-dioxopiperidin-3-yl)-1-oxo-2,3-dihydro-1H-isoindol-5-yl]piperidin-4-yl}methyl) 2,6-diazaspiro[3.4]octan-6-yl]-3-fluorophenyl}-1H-pyrrolo[2,3-b]pyridine-3-carbonyl)-2,4-difluorophenyl]-3-fluoropyrrolidine-1-sulfonamide], in assay [1], the DC50 is less than 5 nM and the Dmax fell in the range of 35 to 70%. In assay [2], the DC50 lay within 1 to 10 nM and the Dmax lay in the range of 35 to 70%.

On to `O=C1CCC(N2Cc3cc(CN4CCN(c5ccc(-c6cnc7[nH]cc(C(=O)c8c(F)ccc(NS(=O)(=O)N9CC[C@@H](F)C9)c8F)c7c6)cc5)C[C@H]4CO)ccc3C2=O)C(=O)N1` (stereo partly drawn) [Compound 112, (3R)-N-[3-(5-{4-[(3S)-4-{[2-(2,6-dioxopiperidin-3-yl)-1-oxo-2,3-dihydro-1H-isoindol-5-yl]methyl}-3-(hydroxymethyl)piperazin-1-yl]phenyl}-1H-pyrrolo [2,3-b]pyridine-3-carbonyl)-2,4-difluorophenyl]-3-fluoropyrrolidine-1-sulfonamide], for which the half-maximal degradation concentration (DC50) is 50 to 500 nM in assay [1] and 10 to 30 nM in assay [2]. In addition, the Dmax in assay [1] is less than 35%; in assay [2] it was 35 to 70%.

For `O=C1CCC(N2Cc3cc(OCCCCN4CCN(c5ccc(-c6cnc7[nH]cc(C(=O)c8c(F)ccc(NS(=O)(=O)N9CC[C@@H](F)C9)c8F)c7c6)cc5F)CC4)ccc3C2=O)C(=O)N1` (stereo partly drawn) [Compound 113, (3R)-N-[3-(5-{4-[4-(4-{[2-(2,6-dioxopiperidin-3-yl)-1-oxo-2,3-dihydro-1H-isoindol-5-yl]oxy}butyl)piperazin-1-yl]-3-fluorophenyl}-1H-pyrrolo[2,3-b]pyridine-3-carbonyl)-2,4-difluorophenyl]-3-fluoropyrrolidine-1-sulfonamide], in assay [1], the 50% degradation concentration (DC50) is 5 to 50 nM and the Dmax was 35 to 70%. In assay [2], the DC50 lay in the range of 1 to 10 nM and the greatest degradation seen (Dmax) was greater than 70%.

Take `O=C1CCC(N2Cc3cc(N4CC5(CN(CCOc6ccc(-c7cnc8[nH]cc(C(=O)c9c(F)ccc(NS(=O)(=O)N%10CC[C@@H](F)C%10)c9F)c8c7)cc6F)C5)C4)ccc3C2=O)C(=O)N1` (stereo partly drawn) [Compound 114, (3R)-N-(3-{5-[4-(2-{6-[2-(2,6-dioxopiperidin-3-yl)-1-oxo-2,3-dihydro-1H-isoindol-5-yl]-2,6-diazaspiro[3.3]heptan-2-yl}ethoxy)-3-fluorophenyl]-1H-pyrrolo[2,3-b]pyridine-3-carbonyl}-2,4-difluorophenyl)-3-fluoropyrrolidine-1-sulfonamide]: in assay [1], the DC50 lay in the range of 5 to 50 nM and the Dmax was 35 to 70%. Besides, in assay [2], the DC50 is 1 to 10 nM and the Dmax was greater than 70%.

Regarding `O=C1CCC(N2Cc3cc(N4CCN(c5cc(N6CCN(c7ccc(-c8cnc9[nH]cc(C(=O)c%10c(F)ccc(NS(=O)(=O)N%11CC[C@@H](F)C%11)c%10F)c9c8)cc7)CC6)ncn5)CC4)ccc3C2=O)C(=O)N1` (stereo partly drawn) [Compound 115, (3R)-N-[3-(5-{4-[4-(6-{4-[2-(2,6-dioxopiperidin-3-yl)-1-oxo-2,3-dihydro-1H-isoindol-5-yl]piperazin-1-yl}pyrimidin-4-yl)piperazin-1-yl]phenyl}-1H-pyrrolo[2,3-b]pyridine-3-carbonyl)-2,4-difluorophenyl]-3-fluoropyrrolidine-1-sulfonamide], the half-maximal degradation concentration (DC50) in assay [1] was 5 to 50 nM; in assay [2], 1 to 10 nM. Also, the Dmax in assay [1] is less than 35%; in assay [2], 35 to 70%.

With `O=C1CC[C@@H](N2Cc3cc(C[C@H](O)CN4CCC(c5ccc(-c6cnc7[nH]cc(C(=O)c8c(F)ccc(NS(=O)(=O)N9CC[C@@H](F)C9)c8F)c7c6)cc5)CC4)ccc3C2=O)C(=O)N1` [Compound 116, (3R)-N-{3-[5-(4-{1-[(2S)-3-{2-[(3R)-2,6-dioxopiperidin-3-yl]-1-oxo-2,3-dihydro-1H-isoindol-5-yl}-2-hydroxypropyl]piperidin-4-yl}phenyl)-1H-pyrrolo[2,3-b]pyridine-3-carbonyl]-2,4-difluorophenyl}-3-fluoropyrrolidine-1-sulfonamide], the 50% degradation concentration (DC50) in assay [1] is 5 to 50 nM; in assay [2], less than 1 nM. For the same compound, the Dmax in assay [1] and in assay [2] was 35 to 70% throughout.

Consider `O=C1CCC(N2Cc3cc(N4CC5(CN(CCOc6ncc(-c7cnc8[nH]cc(C(=O)c9c(F)ccc(NS(=O)(=O)N%10CC[C@@H](F)C%10)c9F)c8c7)cn6)C5)C4)ccc3C2=O)C(=O)N1` (stereo partly drawn) [Compound 117, (3R)-N-(3-{5-[2-(2-{6-[2-(2,6-dioxopiperidin-3-yl)-1-oxo-2,3-dihydro-1H-isoindol-5-yl]-2,6-diazaspiro[3.3]heptan-2-yl}ethoxy)pyrimidin-5-yl]-1H-pyrrolo [2,3-b]pyridine-3-carbonyl}-2,4-difluorophenyl)-3-fluoropyrrolidine-1-sulfonamide], for which the values for the half-maximal degradation concentration (DC50) in assay [1] and in assay [2] were 50 to 500 nM and 1 to 10 nM, respectively. Moreover, the figures for the Dmax in assay [1] and in assay [2] were 35 to 70% and greater than 70%, respectively.

Turning to `O=C1CCC(N2Cc3cc(C4CCN(C[C@@H](O)Cc5ccc(-c6cnc7[nH]cc(C(=O)c8c(F)ccc(NS(=O)(=O)N9CC[C@@H](F)C9)c8F)c7c6)cc5)CC4)ccc3C2=O)C(=O)N1` (stereo partly drawn) [Compound 118, (3R)-N-[3-(5-{4-[(2S)-3-{4-[2-(2,6-dioxopiperidin-3-yl)-1-oxo-2,3-dihydro-1H-isoindol-5-yl]piperidin-1-yl}-2-hydroxypropyl]phenyl}-1H-pyrrolo[2,3-b]pyridine-3-carbonyl)-2,4-difluorophenyl]-3-fluoropyrrolidine-1-sulfonamide], in assay [1], the DC50 was greater than 500 nM and the Dmax was greater than 70%. Moreover, in assay [2], the half-maximal degradation concentration (DC50) was in the range of 1 to 10 nM and the Dmax is greater than 70%.

Regarding `O=C1CCC(N2Cc3cc(C4CCN(CC5(O)CCN(c6ccc(-c7cnc8[nH]cc(C(=O)c9c(F)ccc(NS(=O)(=O)N%10CC[C@@H](F)C%10)c9F)c8c7)cc6)CC5)CC4)ccc3C2=O)C(=O)N1` (stereo partly drawn) [Compound 119, (3R)-N-[3-(5-{4-[4-({4-[2-(2,6-dioxopiperidin-3-yl)-1-oxo-2,3-dihydro-1H-isoindol-5-yl]piperidin-1-yl}methyl)-4-hydroxypiperidin-1-yl]phenyl}-1H-pyrrolo[2,3-b]pyridine-3-carbonyl)-2,4-difluorophenyl]-3-fluoropyrrolidine-1-sulfonamide], in assay [1], the half-maximal degradation concentration (DC50) is less than 5 nM and the Dmax is 35 to 70%. For the same compound, in assay [2], the half-maximal degradation concentration (DC50) is less than 1 nM and the Dmax was 35 to 70%.

For the compound `O=C1CCC(N2Cc3cc(OCCCCN4CCN(c5ccc(-c6cnc7[nH]cc(C(=O)c8c(F)ccc(NS(=O)(=O)N9CC[C@@H](F)C9)c8F)c7c6)cn5)CC4)ccc3C2=O)C(=O)N1` (stereo partly drawn) [Compound 120, (3R)-N-[3-(5-{6-[4-(4-{[2-(2,6-dioxopiperidin-3-yl)-1-oxo-2,3-dihydro-1H-isoindol-5-yl]oxy}butyl)piperazin-1-yl]pyridin-3-yl}-1H-pyrrolo[2,3-b]pyridine-3-carbonyl)-2,4-difluorophenyl]-3-fluoropyrrolidine-1-sulfonamide], in assay [1], the half-maximal degradation concentration (DC50) lay within 5 to 50 nM and the Dmax lay in the range of 35 to 70%. In assay [2], the DC50 lay in the range of 1 to 10 nM and the Dmax was greater than 70%.

Consider `O=C1CCC(N2Cc3cc(OCCCCN4CCN(c5ncc(-c6cnc7[nH]cc(C(=O)c8c(F)ccc(NS(=O)(=O)N9CC[C@@H](F)C9)c8F)c7c6)cn5)CC4)ccc3C2=O)C(=O)N1` (stereo partly drawn) [Compound 121, (3R)-N-[3-(5-{2-[4-(4-{[2-(2,6-dioxopiperidin-3-yl)-1-oxo-2,3-dihydro-1H-isoindol-5-yl]oxy}butyl)piperazin-1-yl]pyrimidin-5-yl}-1H-pyrrolo[2,3-b]pyridine-3-carbonyl)-2,4-difluorophenyl]-3-fluoropyrrolidine-1-sulfonamide], for which, in assay [1], the DC50 was 5 to 50 nM and the greatest degradation seen (Dmax) lay in the range of 35 to 70%. Also, in assay [2], the half-maximal degradation concentration (DC50) lay within 1 to 10 nM and the Dmax was greater than 70%.
